What all share (format): in vivo
Assay [1] deals with Wild buckwheat. Nature of the assay: Post-emergence herbicide test. As to conditions: Fallopia convolvulus, read-out: % plant inhibition (Wibw); for inhibition at 1120 g/ha: 1.12 kg/ha. Put shortly:
(§1)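 Scoring: percent inhibition relative to control, usually 11 days post-treatment, with a later look near 25 days in some instances. Plants had been grown in greenhouse pans for two to three weeks before atomizer spraying at 1870 L/Ha.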

Assay [2] concerns Downy Brome. The assay is described as follows: Post-emergence herbicide test. As to conditions: Bromus tectorum, read-out: % plant inhibition (Dobr); for inhibition at 1120 g/ha: 1.12 kg/ha. The method in brief: as §1
Assay [3] concerns Indian Mustard. Nature of the assay: Post-emergence herbicide test. As to conditions: Brassica juncea, read-out: % plant inhibition (Inmu); for inhibition at 1120 g/ha: 1.12 kg/ha. The method in brief:
as §1

For assay [4], the system named is Cocklebur. The assay is described as follows: Post-emergence herbicide test. The conditions noted are these: Xanthium strumarium, read-out: % plant inhibition (Cobu); for inhibition at 1120 g/ha: 1.12 kg/ha. Put shortly:
as §1

Assay [5] concerns Annual bluegrass. The assay is described as follows: Post-emergence herbicide test. As to conditions: read-out: % plant inhibition (Anbg); for inhibition at 1120 g/ha: 1.12 kg/ha. Put shortly:
as §1

Assay [6] relates to Seedling johnsongrass. Nature of the assay: Post-emergence herbicide test. The conditions noted are these: Sorghum halepense, read-out: % plant inhibition (Sejg); for inhibition at 1120 g/ha: 1.12 kg/ha. The method in brief:
as §1

For assay [7], the system named is Yellow nutsedge. Nature of the assay: Post-emergence herbicide test. As to conditions: Cyperus, read-out: % plant inhibition (Yens); for inhibition at 1120 g/ha: 1.12 kg/ha. Put shortly: as §1
For assay [8], the system named is Barnyardgrass. The assay is described as follows: Post-emergence herbicide test. As to conditions: Echinochloa crus-galli, read-out: % plant inhibition (Bygr); for inhibition at 1120 g/ha: 1.12 kg/ha. The method in brief:
as §1

In assay [9] the test system is Velvetleaf. Nature of the assay: Post-emergence herbicide test. The conditions noted are these: Abutilon theophrasti, read-out: % plant inhibition (Vele); for inhibition at 1120 g/ha: 1.12 kg/ha. The method in brief: as §1
The subject of assay [10] is Morningglory. The assay is described as follows: Post-emergence herbicide test. As to conditions: Ipomoea, read-out: % plant inhibition (Mogl); for inhibition at 1120 g/ha: 1.12 kg/ha. Put shortly: as §1
Assay [11] has as its system resistant broadleaf weeds such as pigweed, cocklebur, velvetleaf and hemp sesbania. The assay is described as follows: Control of resistant broadleaf weeds in crops. As to conditions: in various crops such as corn, soybean and nuts and in forestry.
Assay [12] has as its system Wild buckwheat. Nature of the assay: Pre-emergence herbicide test. As to conditions: Fallopia convolvulus, read-out: % plant inhibition (Wibw); for inhibition at 1120 g/ha: 1.12 kg/ha. Put shortly:
(§2)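 Percent growth inhibition was rated roughly 10-14 days after treatment. Test compound, dissolved or suspended in acetone or water, had been applied to seeds placed on compacted topsoil, which was then covered with untreated soil and kept in the greenhouse.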

Assay [13] concerns Downy Brome. Nature of the assay: Pre-emergence herbicide test. As to conditions: Bromus tectorum, read-out: % plant inhibition (Dobr); for inhibition at 1120 g/ha: 1.12 kg/ha. The method in brief:
as §2

For assay [14], the system named is Indian Mustard. Nature of the assay: Pre-emergence herbicide test. The conditions noted are these: Brassica juncea, read-out: % plant inhibition (Inmu); for inhibition at 1120 g/ha: 1.12 kg/ha. Put shortly: as §2
The subject of assay [15] is Cocklebur. Nature of the assay: Pre-emergence herbicide test. The conditions noted are these: Xanthium strumarium, read-out: % plant inhibition (Cobu); for inhibition at 1120 g/ha: 1.12 kg/ha. The method in brief:
as §2

Assay [16] has as its system Annual bluegrass. Nature of the assay: Pre-emergence herbicide test. As to conditions: read-out: % plant inhibition (Anbg); for inhibition at 1120 g/ha: 1.12 kg/ha. Put shortly:
as §2

Assay [17] relates to Seedling johnsongrass. The assay is described as follows: Pre-emergence herbicide test. As to conditions: Sorghum halepense, read-out: % plant inhibition (Sejg); for inhibition at 1120 g/ha: 1.12 kg/ha. Put shortly:
as §2

Assay [18] has as its system Yellow nutsedge. The assay is described as follows: Pre-emergence herbicide test. As to conditions: Cyperus, read-out: % plant inhibition (Yens); for inhibition at 1120 g/ha: 1.12 kg/ha. The method in brief:
as §2

Assay [19] has as its system Barnyardgrass. The assay is described as follows: Pre-emergence herbicide test. The conditions noted are these: Echinochloa crus-galli, read-out: % plant inhibition (Bygr); for inhibition at 1120 g/ha: 1.12 kg/ha. The method in brief:
as §2

For assay [20], the system named is Velvetleaf. Nature of the assay: Pre-emergence herbicide test. The conditions noted are these: Abutilon theophrasti, read-out: % plant inhibition (Vele); for inhibition at 1120 g/ha: 1.12 kg/ha. The method in brief: as §2
The test system of assay [21] is Morningglory. Nature of the assay: Pre-emergence herbicide test. The conditions noted are these: Ipomoea, read-out: % plant inhibition (Mogl); for inhibition at 1120 g/ha: 1.12 kg/ha. The method in brief:
as §2

Each structure is given as a SMILES string.

The inhibition is the change of the read-out against control, counted positive when it falls.

For the molecule `COC(=O)C(C)OC(=O)c1cc(-c2nn(C)c(C(F)(F)F)c2Cl)c(F)cc1Cl` (stereo not drawn) [Compound 137, 2-Chloro-5-(4-chloro-1-methyl-5-(trifluoromethyl)-1H-pyrazol-3-yl)-4-fluorobenzoic acid, 2-methoxy-1-methyl-2-oxoethyl ester], the inhibition at 1120 g/ha in the assay on Wild buckwheat [1], in the assay with Downy Brome [2], in the assay with Indian Mustard [3], with Cocklebur [4], in the assay with Annual bluegrass [5] and in the assay with Seedling johnsongrass [6] was 100% each time. In addition, the inhibition at 1120 g/ha with Yellow nutsedge [7] turned out to be 20%; with Barnyardgrass [8], 100%; in the assay with Velvetleaf [9], 100%; in the assay on Morningglory [10], 100%; with Wild buckwheat [12], 90%; in the assay with Downy Brome [13], 80%. The inhibition at 1120 g/ha with Indian Mustard [14] amounted to 100%; with Cocklebur [15], 100%; with Annual bluegrass [16] it was 70%; in the assay on Seedling johnsongrass [17], 50%; in the assay on Yellow nutsedge [18], 20%; with Barnyardgrass [19], 70%. Further, the inhibition at 1120 g/ha with Velvetleaf [20] and with Morningglory [21] was 100% throughout. Further, the “control of resistant broadleaf weeds” value in assay [11] is “outstanding control”.

On to `C#CCOc1cc(-c2nn(C)c(C(F)(F)F)c2Cl)c(F)cc1Cl` [Compound 261, 4-Chloro-3-(4-chloro-2-fluoro-5-propargyl-oxyphenyl)-1-methyl-5-(trifluoromethyl)-1H-pyrazole], for which the inhibition at 11210 g/ha in the assay with Wild buckwheat [1] (11.21 kg/ha), in the assay with Downy Brome [2] (11.21 kg/ha), with Indian Mustard [3] (11.21 kg/ha), in the assay with Cocklebur [4] (11.21 kg/ha), in the assay on Annual bluegrass [5] (11.21 kg/ha) and in the assay on Seedling johnsongrass [6] (11.21 kg/ha) was 100% each time. The inhibition at 11210 g/ha in the assay on Yellow nutsedge [7] (11.21 kg/ha) came to 20%; in the assay on Barnyardgrass [8] (11.21 kg/ha), 100%; in the assay with Velvetleaf [9] (11.21 kg/ha) it was 100%; in the assay with Morningglory [10] (11.21 kg/ha), 100%; in the assay on Wild buckwheat [12] (11.21 kg/ha), 100%; with Downy Brome [13] (11.21 kg/ha) it was 100%. Further, the inhibition at 11210 g/ha with Indian Mustard [14] (11.21 kg/ha) was 100%; in the assay with Cocklebur [15] (11.21 kg/ha) it was 100%; in the assay with Annual bluegrass [16] (11.21 kg/ha), 100%; with Seedling johnsongrass [17] (11.21 kg/ha), 100%; with Yellow nutsedge [18] (11.21 kg/ha), 30%; in the assay with Barnyardgrass [19] (11.21 kg/ha), 100%. Moreover, the inhibition at 11210 g/ha in the assay with Velvetleaf [20] (11.21 kg/ha) and in the assay with Morningglory [21] (11.21 kg/ha) was 100% throughout. Besides, in assay [11], the “control of resistant broadleaf weeds” value is “outstanding control”.

Turning to `CC(C)OC(=O)COc1cc(-c2nn(C)c(C(F)(F)F)c2Cl)c(F)cc1Cl` [Compound 282, (2-Chloro-5-(4-chloro-1-methyl-5-(trifluoromethyl)-1H-pyrazol-3-yl)-4-fluorophenoxy)acetic acid, 1-methylethyl ester], the inhibition at 1120 g/ha was determined as 100% in the assay on Wild buckwheat [1]; 0% with Downy Brome [2]; 10% in the assay on Indian Mustard [3]; 100% in the assay on Cocklebur [4]; 0% in the assay with Annual bluegrass [5]; 20% in the assay on Seedling johnsongrass [6]. Besides, the inhibition at 1120 g/ha in the assay with Yellow nutsedge [7] was 10%; in the assay on Barnyardgrass [8], 30%; with Velvetleaf [9], 100%; in the assay with Morningglory [10], 70%; in the assay on Wild buckwheat [12], 90%; in the assay with Downy Brome [13] it was 20%. Also, the inhibition at 1120 g/ha with Indian Mustard [14] was 30%; in the assay with Cocklebur [15], 30%; with Annual bluegrass [16] it was 20%; in the assay on Seedling johnsongrass [17] it was 30%; with Yellow nutsedge [18], 40%; in the assay on Barnyardgrass [19] it was 20%. Moreover, the inhibition at 1120 g/ha with Velvetleaf [20] is 100%; in the assay with Morningglory [21], 90%. For the same molecule, the “control of resistant broadleaf weeds” value in [11] was “outstanding control”.

For the origin of these results see US5530126A, “Process for the preparation of substituted 6-(pyrazol-3yl)-1,4-benzoxazin-3-ones” (Monsanto Company, priority 1994, dated 1996).
